Measurements as given in the supplement of paper PMC9663587.

Assays:
Flavopiridol [1] = compound: T1, CN1CC[C@H](c2c(O)cc(O)c3c(=O)cc(-c4ccccc4Cl)oc23)[C@H](O)C1 [Flavopiridol]; assay: GR value, 72 h; higher = faster growth (1 = untreated, <0 = killing);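 further: breast cancer and non-malignant breast epithelial lines, nine half-log doses, viable cells counted by Hoechst and LIVE/DEAD dye imaging versus time-zero plates and DMSO controls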
THZ1 = compound: CN(C)C/C=C/C(=O)Nc1ccc(C(=O)Nc2cccc(Nc3ncc(Cl)c(-c4c[nH]c5ccccc45)n3)c2)cc1 [THZ1]; assay: as above
THZ531 = compound: CN(C)C/C=C/C(=O)Nc1ccc(C(=O)N2CCC[C@@H](Nc3ncc(Cl)c(-c4c[nH]c5ccccc45)n3)C2)cc1 [THZ531]; assay: as above
LEE011/Ribociclib = compound: CN(C)C(=O)c1cc2cnc(Nc3ccc(N4CCNCC4)cn3)nc2n1C1CCCC1 [LEE011/Ribociclib]; assay: as above
Neratinib/HKI272 = compound: CCOc1cc2ncc(C#N)c(Nc3ccc(OCc4ccccn4)c(Cl)c3)c2cc1NC(=O)/C=C/CN(C)C [Neratinib/HKI272]; assay: as above
BSJ-03-123 = compound: CC(=O)c1c(C)c2cnc(Nc3ccc(N4CCN(CCOCCOCCOCCNC(=O)COc5cccc6c5C(=O)N(C5CCC(=O)NC5=O)C6=O)CC4)cn3)nc2n(C2CCCC2)c1=O [BSJ-03-123]; assay: as above
[2] = compound: CC(=O)c1c(C)c2cnc(Nc3ccc(N4CCNCC4)cn3)nc2n(C2CCCC2)c1=O; assay: as above
YKL-5-124 = compound: C=CC(=O)Nc1ccc(C(=O)Nc2[nH]nc3c2CN(C(=O)N[C@H](CN(C)C)c2ccccc2)C3(C)C)cc1 [YKL-5-124]; assay: as above
[3] = compound: CCc1cnn2c(NCc3ccc[n+]([O-])c3)cc(N3CCCC[C@H]3CCO)nc12; assay: as above
[4] = compound: CCN1CCN(Cc2ccc(Nc3ncc(F)c(-c4cc(F)c5nc(C)n(C(C)C)c5c4)n3)nc2)CC1; assay: as above
Flavopiridol [5] = compound: T1, Flavopiridol
ABT-737 = compound: CN(C)CC[C@H](CSc1ccccc1)Nc1ccc(S(=O)(=O)NC(=O)c2ccc(N3CCN(Cc4ccccc4-c4ccc(Cl)cc4)CC3)cc2)cc1[N+](=O)[O-] [ABT-737]
[6] = compound: CO[C@@H](C)Cn1c(=O)n(C)c2cnc3ccc(-c4cncc(C(C)(C)O)c4)cc3c21
Taselisib/GDC0032 = compound: Cc1nc(-c2cn3c(n2)-c2ccc(-c4cnn(C(C)(C)C(N)=O)c4)cc2OCC3)n(C(C)C)n1 [Taselisib/GDC0032]
Saracatinib/AZD0530 = compound: CN1CCN(CCOc2cc(OC3CCOCC3)c3c(Nc4c(Cl)ccc5c4OCO5)ncnc3c2)CC1 [Saracatinib/AZD0530]
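Wherever GR50, 72 h is given: breast cancer and non-malignant breast epithelial cell lines, Deep Dye Drop or Dye Drop imaging, nine half-log doses, GR normalized to time-zero plates and DMSO-only controls.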

BT549
GR value (Flavopiridol [1]; 0.0001 µM): 1.03 GR
GR value (Flavopiridol [1]; 0.0003162 µM): 0.982 GR
GR value (Flavopiridol [1]; 0.001 µM): 1.01 GR
GR value (Flavopiridol [1]; 0.003162 µM): 0.958 GR
GR value (Flavopiridol [1]; 0.01 µM): 1.02 GR
GR value (Flavopiridol [1]; 0.03162 µM): 0.894 GR
GR value (Flavopiridol [1]; 0.1 µM): 0.695 GR
GR value (Flavopiridol [1]; 0.3162 µM): 0.11 GR
GR value (Flavopiridol [1]; 1 µM): -0.455 GR
GR value (THZ1; 0.0001 µM): 1.06 GR
GR value (THZ1; 0.0003162 µM): 1.01 GR
GR value (THZ1; 0.001 µM): 1.02 GR
GR value (THZ1; 0.003162 µM): 0.979 GR
GR value (THZ1; 0.01 µM): 0.909 GR
GR value (THZ1; 0.03162 µM): 0.69 GR
GR value (THZ1; 0.1 µM): 0.16 GR
GR value (THZ1; 0.3162 µM): -0.171 GR
GR value (THZ1; 1 µM): -0.317 GR
GR value (THZ531; 0.0001 µM): 0.997 GR
GR value (THZ531; 0.0003162 µM): 0.974 GR
GR value (THZ531; 0.001 µM): 1.01 GR
GR value (THZ531; 0.003162 µM): 1.01 GR
GR value (THZ531; 0.01 µM): 1.04 GR
GR value (THZ531; 0.03162 µM): 0.956 GR
GR value (THZ531; 0.1 µM): 0.849 GR
GR value (THZ531; 0.3162 µM): 0.51 GR
GR value (THZ531; 1 µM): -0.378 GR
GR value (LEE011/Ribociclib; 0.001 µM): 0.972 GR
GR value (LEE011/Ribociclib; 0.003162 µM): 1.06 GR
GR value (LEE011/Ribociclib; 0.01 µM): 0.919 GR
GR value (LEE011/Ribociclib; 0.03162 µM): 0.997 GR
GR value (LEE011/Ribociclib; 0.1 µM): 1 GR
GR value (LEE011/Ribociclib; 0.3162 µM): 0.995 GR
GR value (LEE011/Ribociclib; 1 µM): 1 GR
GR value (LEE011/Ribociclib; 3.162 µM): 0.966 GR
GR value (LEE011/Ribociclib; 10 µM): 0.992 GR
GR value (Neratinib/HKI272; 0.0003162 µM): 1.02 GR
GR value (Neratinib/HKI272; 0.001 µM): 1.03 GR
GR value (Neratinib/HKI272; 0.003162 µM): 1 GR
GR value (Neratinib/HKI272; 0.01 µM): 1.04 GR
GR value (Neratinib/HKI272; 0.03162 µM): 1.02 GR
GR value (Neratinib/HKI272; 0.1 µM): 0.969 GR
GR value (Neratinib/HKI272; 0.3162 µM): 0.904 GR
GR value (Neratinib/HKI272; 1 µM): 0.793 GR
GR value (Neratinib/HKI272; 3.162 µM): 0.196 GR
GR value (BSJ-03-123; 0.001 µM): 0.998 GR
GR value (BSJ-03-123; 0.003162 µM): 0.999 GR
GR value (BSJ-03-123; 0.01 µM): 1 GR
GR value (BSJ-03-123; 0.03162 µM): 0.988 GR
GR value (BSJ-03-123; 0.1 µM): 0.998 GR
GR value (BSJ-03-123; 0.3162 µM): 0.976 GR
GR value (BSJ-03-123; 1 µM): 0.938 GR
GR value (BSJ-03-123; 3.162 µM): 0.88 GR
GR value (BSJ-03-123; 10 µM): 0.0237 GR
GR value ([2]; 0.0003162 µM): 1.02 GR
GR value ([2]; 0.001 µM): 1.04 GR
GR value ([2]; 0.003162 µM): 1.03 GR
GR value ([2]; 0.01 µM): 1.06 GR
GR value ([2]; 0.03162 µM): 1.06 GR
GR value ([2]; 0.1 µM): 1.04 GR
GR value ([2]; 0.3162 µM): 1.03 GR
GR value ([2]; 1 µM): 1.08 GR
GR value ([2]; 3.162 µM): 1.07 GR
GR value (YKL-5-124; 0.001 µM): 0.747 GR
GR value (YKL-5-124; 0.003162 µM): 0.497 GR
GR value (YKL-5-124; 0.01 µM): 0.301 GR
GR value (YKL-5-124; 0.03162 µM): 0.125 GR
GR value (YKL-5-124; 0.1 µM): 0.0904 GR
GR value (YKL-5-124; 0.3162 µM): 0.0362 GR
GR value (YKL-5-124; 1 µM): -0.0144 GR
GR value (YKL-5-124; 3.162 µM): -0.0731 GR
GR value (YKL-5-124; 10 µM): -0.58 GR
GR value ([3]; 0.0001 µM): 0.971 GR
GR value ([3]; 0.0003162 µM): 1.02 GR
GR value ([3]; 0.001 µM): 1 GR
GR value ([3]; 0.003162 µM): 0.996 GR
GR value ([3]; 0.01 µM): 0.698 GR
GR value ([3]; 0.03162 µM): -0.221 GR
GR value ([3]; 0.1 µM): -0.261 GR
GR value ([3]; 0.3162 µM): -0.275 GR
GR value ([3]; 1 µM): -0.293 GR
GR value ([4]; 0.001 µM): 0.992 GR
GR value ([4]; 0.003162 µM): 1.03 GR
GR value ([4]; 0.01 µM): 0.997 GR
GR value ([4]; 0.03162 µM): 1.02 GR
GR value ([4]; 0.1 µM): 0.952 GR
GR value ([4]; 0.3162 µM): 0.963 GR
GR value ([4]; 1 µM): 0.895 GR
GR value ([4]; 3.162 µM): 0.588 GR
GR value ([4]; 10 µM): 0.0335 GR
GR50, 72 h (Flavopiridol [5]): 0.161 µM
GR50, 72 h (ABT-737): > 10 µM
GR50, 72 h [6]: 0.00122 µM
GR50, 72 h (Taselisib/GDC0032): 2.21 µM
GR50, 72 h (Saracatinib/AZD0530): > 10 µM
